Reference: patent US12180252B2, “Peptide derived from PEP27 peptide and uses thereof” (priority 2021, dated 2024)
Values after ≈ are worked out from the molar mass of the structure shown. Values joined by “and” are separate entries in the source; they are usually repeats but may differ in a detail not shown here. Identical values can stand only once. Where a SMILES comes first, the peptide text is derived from it.

Tests used:
[1] = tested on: E. coli and Staphylococcus aureus cells; experiment: Scanning electron microscope analysis of bacterial membrane; format: cell-based, Escherichia coli; details: at MIC, 37° C., 1 hour
Experimental: In order to confirm whether the synthetic peptides of the present invention prepared by the method of above 1 would damage the bacterial cell membrane, it was investigated through a scanning electron microscope.
As a control, a strain not treated with peptide was used. After incubation, the cells were recovered, treated with 2.5% glutaraldehyde at 4° C. for 18 hours, and washed twice with PBS buffer solution. The fixed cells were dehydrated for 10 minutes using 100% ethanol and diluted ethanol (50%, 70%, 90% and 100%) in sequential order, and then the samples were dried and coated with platinum, followed by observation through a low vacuum scanning electron microscope.

plasmid DNA (pRSETB) = experiment: Peptide-DNA binding by agarose gel electrophoresis; details: peptide/DNA ratios 0.25:1 to 4:1, 300 ng plasmid DNA
Experimental: Specifically, 300 ng of plasmid DNA (pRSETB) was reacted with the peptide by a relative ratio (reactions were performed at peptide/DNA ratios of DNA alone, 0.25:1, 0.5:1, 1:1, 1.5:1, 2:1, 3:1, 4:1, respectively) at 37° C. for 10 minutes, followed by conducting electrophoresis on a 1% agarose gel, staining the same with ethidium bromide (EtBr) and monitoring through UV.

E. coli = experiment: Flow cytometry, propidium iodide staining; format: cell-based, Escherichia coli; details: E. coli, flow cytometry
Experimental: In order to confirm whether the peptide prepared by the method of above 1 acts on the bacterial membrane, PEP27-2 peptide having better antimicrobial activity than the parental peptide was analyzed through flow cytometry.
Thereafter, the supernatant was removed using a centrifuge (10,000 rpm) and stained with propidium iodide (PI) at a concentration of 10 μg/ml at 4° C. for 30 minutes. Then, the unbound propidium iodide (PI) was removed using the centrifuge, and 1 ml of physiological saline (PBS) was added to remove agglomeration of the cells. Thereafter, effects of the peptide on the bacterial membrane were determined using a Bechman flow cytometer.

[2] = Calcein release from LUVs; details: P/L ratio of 0.05
Experimental: To examine the mechanism of action of PEP27 and PEP27-2, we evaluated the changes in bacterial cell membrane permeability by monitoring the release of calcein, a fluorescent marker, from calcein entrapped LUVs with different lipid bilayer compositions.
Peptide-induced membrane permeabilization was quantified by monitoring calcein release from LUVs (n=3 per condition). Different calcein-entrapped LUVs [PE/PG (7/3) or PC/CH/SM (1/1/1)] were prepared as described above, except that the dry lipid films were resuspended in 1 mL of PBS (pH 7.2) containing 70 mM calcein. Gel filtration chromatography on a Sephadex G-50 column was performed to separate free calcein from that entrapped in LUVs. Thereafter, the LUVs with entrapped calcein were mixed with peptides at various ratios, and the fluorescence of the released calcein was measured with a SpectraMax M3 Multi-Mode Microplate Reader (Molecular Devices, Sunnyvale, CA, USA) at excitation and emission wavelengths of 480 and 520 nm, respectively.

E. coli ATCC 25922 = experiment: Time-kill kinetics; format: cell-based, Escherichia coli; details: at MIC, after 20 min of treatment
Experimental: (§1) Time-killing kinetics were analyzed for E. coli ATCC 25922 and S. aureus ATCC 25923 in the presence of PEP27-2 at their respective MICs. The bacterial cells were cultured overnight until they reached the exponential growth phase; they were then incubated at 37° C. for an additional 10 min from 0 min to 1 h. The total bacterial population was then stained with QUANTOM total cell staining dye, after which the stained cells were mixed with QUANTOM cell loading buffer and loaded into QUANTOM M50 Slides. The slides were centrifuged using the QUANTOM centrifuge to evenly distribute them throughout the counting chamber and ensure accurate cell counts. Intracellular fluorescence was detected using the QUANTOM Tx microbial cell counter, which captures and counts cells automatically (Logos Biosystems, Gyeonggi-do, South Korea).

E. coli ATCC25922 = format: cell-based, Escherichia coli; details: ATCC25922, 18 h
E. coli CCARM1229 = format: cell-based, Escherichia coli; details: E. coli CCARM1229, antibiotics-tolerant; 37° C., 18 hours
S. aureus ATCC 25923 = experiment: Time-kill kinetics; format: cell-based, Staphylococcus aureus; details: at MIC, after 20 min of treatment
Experimental: as §1

S. aureus MW2 = experiment: microbe, parasite or virus in culture; details: S. aureus MW2, antibiotics-tolerant; 37° C., 18 hours
In short: (§2)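 Peptide growth inhibition measured by twofold dilution against mid-log bacteria (2×10^4 cells/100 μl), 37° C, 18 hours; endpoint was absence of cell division. Meropenem, ceftazidime, ceftriaxone and vancomycin were run in parallel.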

P. aeruginosa ATCC27853 = experiment: microbe, parasite or virus in culture; details: ATCC27853, 18 h
In short: as §2

S. aureus ATCC29213 = experiment: microbe, parasite or virus in culture; details: ATCC29213, 18 h
In short: as §2

S. aureus ATCC25923 = experiment: microbe, parasite or virus in culture; details: ATCC25923, 18 h
In short: as §2

S. aureus USA300 = experiment: microbe, parasite or virus in culture; details: S. aureus USA300, antibiotics-tolerant; 37° C., 18 hours
In short: as §2

In the case of `CC[C@H](C)[C@H](NC(=O)CN)C(=O)NCC(=O)N[C@@H](C)C(=O)N[C@H](C(=O)N[C@@H](CC(C)C)C(=O)N[C@@H](CCCCN)C(=O)N[C@H](C(=O)N[C@@H](CC(C)C)C(=O)N[C@H](C(=O)N[C@H](C(=O)NCC(=O)N[C@@H](CC(C)C)C(=O)N1CCC[C@H]1C(=O)N[C@@H](C)C(=O)N[C@@H](CC(C)C)C(=O)N[C@H](C(=O)N[C@@H](CO)C(=O)N[C@@H](Cc1c[nH]c2ccccc12)C(=O)N[C@H](C(=O)N[C@@H](CCCCN)C(=O)N[C@@H](CCCNC(=N)N)C(=O)N[C@@H](CCCCN)C(=O)N[C@@H](CCCNC(=N)N)C(=O)N[C@@H](CCC(N)=O)C(=O)N[C@@H](CCC(N)=O)C(N)=O)[C@@H](C)CC)[C@@H](C)CC)[C@@H](C)O)[C@@H](C)O)C(C)C)C(C)C` [Melittin, reference compound], the “bacterial cell membrane damage by SEM” value [1] is reported as “significant membrane damage”, the “binding to DNA (gel electrophoresis)” value (plasmid DNA (pRSETB)) is reported as “not bound to any DNA” and the “bacterial membrane destruction” value (E. coli) is reported as “found to have cell membrane destruction ability”. For the same molecule, the maximum calcein leakage [2] was 100%.
With `CSCC[C@H](N)C(=O)N[C@@H](Cc1c[nH]c2ccccc12)C(=O)N[C@@H](CCCCN)C(=O)N[C@@H](Cc1c[nH]c2ccccc12)C(=O)N[C@@H](Cc1ccccc1)C(=O)N[C@@H](Cc1c[nH]cn1)C(=O)N[C@@H](CC(N)=O)C(=O)N[C@H](C(=O)N[C@@H](CC(C)C)C(=O)N[C@@H](CO)C(=O)N[C@@H](Cc1c[nH]c2ccccc12)C(=O)NCC(=O)N[C@@H](Cc1c[nH]c2ccccc12)C(=O)N[C@@H](CC(C)C)C(=O)N[C@@H](CC(C)C)C(=O)N[C@@H](C)C(=O)N[C@@H](CC(=O)O)C(=O)N[C@@H](CCCCN)C(=O)N[C@@H](CCCNC(=N)N)C(=O)N1CCC[C@H]1C(=O)N[C@@H](C)C(=O)N[C@@H](CCCNC(=N)N)C(=O)N[C@@H](CC(=O)O)C(=O)N[C@@H](Cc1ccc(O)cc1)C(=O)N[C@@H](CC(N)=O)C(=O)N[C@@H](CCCNC(=N)N)C(=O)N[C@@H](CCCCN)C(N)=O)C(C)C` [PEP27-2] (H-MWKWFHNVLSWGWLLADKRPARDYNRK-NH2) the “decrease in E. coli cell viability” value (E. coli ATCC 25922) was 98.63%, the Minimal inhibitory concentration (E. coli ATCC25922) was 4 µM (≈ 13.9 µg/mL) and the Minimal inhibitory concentration (E. coli CCARM1229) was 4 µM (≈ 13.9 µg/mL). For the same molecule, the “decrease in S. aureus cell viability” value (S. aureus ATCC 25923) was 97.48%, the Minimal inhibitory concentration (S. aureus MW2) was 3 µM and 4 µM and the Minimal inhibitory concentration (P. aeruginosa ATCC27853) was 4 µM (≈ 13.9 µg/mL). The Minimal inhibitory concentration (S. aureus ATCC29213) was 2 µM (≈ 6.95 µg/mL), the Minimal inhibitory concentration (S. aureus ATCC25923) was 2 µM (≈ 6.95 µg/mL) and the Minimal inhibitory concentration (S. aureus USA300) was 2 µM (≈ 6.95 µg/mL).
